From the CheMixHub viscosity set
Values joined by “and” are separate entries in the source; they are usually repeats but may differ in a detail not shown here. Equal entries are not always repeated. ± gives the uncertainty stated by the source. Each block holds one molecule with its values, some of them ahead of it.

Compound: CC(=O)C=C(C)C
viscosity (298.15 K, 101 kPa): 0.876 ± 0.011 mPa·s

viscosity (298.15 K, 101 kPa): 2.6 ± 0.05 mPa·s
viscosity (303.15 K, 101 kPa): 2.066 ± 0.062 mPa·s
viscosity (308.15 K, 101 kPa): 1.856 ± 0.056 mPa·s
viscosity (313.15 K, 101 kPa): 1.676 ± 0.051 mPa·s
viscosity (318.15 K, 101 kPa): 1.73 ± 0.04 mPa·s
Compound: CC12CCC(CC1)C(C)(C)O2

Compound: CCC(=O)O
viscosity (293.15 K, 101 kPa): 1.1 ± 0.01 mPa·s and 1.07 ± 0.023 mPa·s and 1.102 ± 0.028 mPa·s
viscosity (293.15 K, 101.33 kPa): 1.103 ± 0.054 mPa·s and 1.156 ± 0.012 mPa·s and 1.101 ± 0.03 mPa·s
viscosity (298.15 K, 101.33 kPa): 1.03 ± 0.05 mPa·s
viscosity (303.15 K, 101.33 kPa): 0.96 ± 0.05 mPa·s and 0.944 ± 0.026 mPa·s
viscosity (313.15 K, 101.33 kPa): 0.8453 ± 0.043 mPa·s and 0.901 ± 0.009 mPa·s and 0.84 ± 0.04 mPa·s
viscosity (318.15 K, 101.33 kPa): 0.783 ± 0.021 mPa·s
viscosity (323.15 K, 101 kPa): 0.75 ± 0.01 mPa·s
viscosity (323.15 K, 101.33 kPa): 0.8102 ± 0.041 mPa·s

viscosity (293.15 K, 102 kPa): 0.932 ± 0.021 mPa·s
viscosity (303.15 K, 102 kPa): 0.812 ± 0.021 mPa·s
viscosity (313.15 K, 102 kPa): 0.712 ± 0.021 mPa·s
viscosity (323.15 K, 102 kPa): 0.632 ± 0.021 mPa·s
Compound: CCC(C)c1ccccc1 (configuration not stated)

Compound: CCCCCCCN
viscosity (303.15 K, 101 kPa): 0.8789 ± 0.0074 mPa·s

Compound: CCCCN(CCO)CCCC
viscosity (303.15 K, 100 kPa): 4.6 mPa·s

viscosity (303.15 K, 101 kPa): 41.29 ± 0.6 mPa·s
viscosity (308.15 K, 101 kPa): 31.59 ± 0.49 mPa·s
viscosity (313.15 K, 101 kPa): 24.47 ± 0.37 mPa·s
viscosity (318.15 K, 101 kPa): 19.39 ± 0.29 mPa·s
viscosity (323.15 K, 101 kPa): 15.47 ± 0.25 mPa·s
Compound: CCCCN(CCO)CCO

viscosity (298.15 K, 101 kPa): 196.2 ± 73 mPa·s
viscosity (313.15 K, 101 kPa): 80.85 ± 11 mPa·s
viscosity (323.15 K, 101 kPa): 50.22 ± 1.4 mPa·s
Compound: CCCC[n+]1ccc(C)cc1.F[B-](F)(F)F

Compound: CNN
viscosity (293.15 K, 101.3 kPa): 0.96 ± 0.03 mPa·s

viscosity (298.15 K, 100 kPa): 0.971 ± 0.059 mPa·s
viscosity (303.15 K, 100 kPa): 0.886 ± 0.05 mPa·s
viscosity (303.15 K, 101 kPa): 0.886 ± 0.023 mPa·s
viscosity (308.15 K, 101 kPa): 0.808 ± 0.022 mPa·s
viscosity (313.15 K, 100 kPa): 0.728 ± 0.05 mPa·s
viscosity (318.15 K, 101 kPa): 0.642 ± 0.019 mPa·s
Compound: Cc1ccccc1Cl
viscosity (308.15 K, 100 kPa): 0.808 ± 0.05 mPa·s and 0.857 ± 0.052 mPa·s
viscosity (313.15 K, 101 kPa): 0.741 ± 0.012 mPa·s and 0.728 ± 0.02 mPa·s
viscosity (318.15 K, 100 kPa): 0.642 ± 0.05 mPa·s and 0.763 ± 0.046 mPa·s

Compound: ClCCCCCl
viscosity (298.15 K, 101 kPa): 1.319 ± 0.012 mPa·s
viscosity (303.15 K, 101 kPa): 1.218 ± 0.011 mPa·s
viscosity (308.15 K, 101 kPa): 1.128 ± 0.011 mPa·s
viscosity (313.15 K, 101 kPa): 1.043 ± 0.0099 mPa·s

Compound: NN
viscosity (293.15 K, 101.3 kPa): 0.94 ± 0.03 mPa·s
viscosity (303 K, 101 kPa): 0.85 ± 0.027 mPa·s
viscosity (313 K, 101 kPa): 0.75 ± 0.024 mPa·s

Compound: Nc1cccc(Cl)c1
viscosity (298.15 K, 101 kPa): 3.495 ± 0.093 mPa·s
viscosity (303.15 K, 101 kPa): 3.256 ± 0.83 mPa·s
